Laboratory results taken from PubChem BioAssay (NCI).
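Each compound was tested at five concentrations against cells in 96-well plates for 48 hours. At the TGI there is no net growth.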

Tests used:
Assay in all cases: NCI-60 cell line screen, 48 h
[1] = tested on: 786-0 renal
[2] = tested on: A498 renal
[3] = tested on: A549 NSCLC
[4] = tested on: ACHN renal
[5] = tested on: BT-549 breast
[6] = tested on: CAKI-1 renal
[7] = tested on: CCRF-CEM leukemia
[8] = tested on: COLO 205 colon
[9] = tested on: EKVX NSCLC
[10] = tested on: HCC-2998 colon
[11] = tested on: HCT-116 colon
[12] = tested on: HCT-15 colon
[13] = tested on: HL-60(TB) leukemia
[14] = tested on: HOP-62 NSCLC
[15] = tested on: HOP-92 NSCLC
[16] = tested on: HS 578T breast
[17] = tested on: HT29 colon
[18] = tested on: IGROV1 ovarian
[19] = tested on: K-562 leukemia
[20] = tested on: KM12 colon
[21] = tested on: LOX IMVI melanoma
[22] = tested on: M14 melanoma
[23] = tested on: MALME-3M melanoma
[24] = tested on: MCF7 breast
[25] = tested on: MDA-MB-231 breast
[26] = tested on: MDA-N
[27] = tested on: MOLT-4 leukemia
[28] = tested on: NCI-H226 lung
[29] = tested on: NCI-H23 lung
[30] = tested on: NCI-H460 lung
[31] = tested on: NCI-H522 lung
[32] = tested on: NCI/ADR-RES ovarian
[33] = tested on: OVCAR-3 ovarian
[34] = tested on: OVCAR-4 ovarian
[35] = tested on: OVCAR-5 ovarian
[36] = tested on: OVCAR-8 ovarian
[37] = tested on: PC-3 prostate
[38] = tested on: RPMI-8226 leukemia
[39] = tested on: RXF 393 renal
[40] = tested on: SF-268 CNS
[41] = tested on: SF-295 CNS
[42] = tested on: SF-539 CNS
[43] = tested on: SK-MEL-2 melanoma
[44] = tested on: SK-MEL-28 melanoma
[45] = tested on: SK-MEL-5 melanoma
[46] = tested on: SK-OV-3 ovarian
[47] = tested on: SN12C renal
[48] = tested on: SNB-19 CNS
[49] = tested on: SNB-75 CNS
[50] = tested on: SR leukemia
[51] = tested on: SW-620 colon
[52] = tested on: T-47D breast
[53] = tested on: TK-10 renal
[54] = tested on: U251 CNS
[55] = tested on: UACC-257 melanoma
[56] = tested on: UO-31 renal
[57] = tested on: MDA-MB-435
[58] = tested on: UACC-62 melanoma

SMILES: Nc1nc(N)c2cc(-c3ccccc3)cnc2n1
- TGI [1]: 21.5 µM
- TGI [2]: 28.5 µM
- TGI [3]: 28 µM
- TGI [4]: 26.3 µM
- TGI [5]: 30.2 µM
- TGI [6]: 29.5 µM
- TGI [7]: 98.3 µM
- TGI [8]: 27.3 µM
- TGI [9]: 45.1 µM
- TGI [10]: > 100 µM
- TGI [11]: 17.3 µM
- TGI [12]: > 100 µM
- TGI [13]: 28.4 µM
- TGI [14]: 40.9 µM
- TGI [15]: 30.1 µM
- TGI [16]: 46.2 µM
- TGI [17]: 21 µM
- TGI [18]: 26.8 µM
- TGI [19]: 17.7 µM
- TGI [20]: 30.1 µM
- TGI [21]: 37.6 µM
- TGI [22]: 57.7 µM
- TGI [23]: 21.7 µM
- TGI [24]: 44.1 µM
- TGI [25]: 20.4 µM
- TGI [26]: 25.4 µM
- TGI [27]: 28.3 µM
- TGI [28]: 33.1 µM
- TGI [29]: 25.9 µM
- TGI [30]: 24.3 µM
- TGI [31]: 44.9 µM
- TGI [32]: > 100 µM
- TGI [33]: 35.8 µM
- TGI [34]: 35.2 µM
- TGI [35]: 27.7 µM
- TGI [36]: 57.4 µM
- TGI [37]: 20.6 µM
- TGI [38]: 48.9 µM
- TGI [39]: 22.5 µM
- TGI [40]: 8.78 µM
- TGI [41]: 33 µM
- TGI [42]: 31.1 µM
- TGI [43]: > 100 µM
- TGI [44]: 35 µM
- TGI [45]: 27.3 µM
- TGI [46]: > 100 µM
- TGI [47]: 29.1 µM
- TGI [48]: 38.3 µM
- TGI [49]: 17.3 µM
- TGI [50]: 21.2 µM
- TGI [51]: 22.9 µM
- TGI [52]: > 100 µM
- TGI [53]: 29.9 µM
- TGI [54]: 42 µM
- TGI [55]: 30.6 µM
- TGI [56]: 25.7 µM

SMILES: COc1cccc2c1CCc1c(-c3ccc(F)cc3)cc(-c3ccc4ccccc4n3)nc1-2
- TGI [1]: > 100 µM
- TGI [2]: > 100 µM
- TGI [3]: > 100 µM
- TGI [4]: > 100 µM
- TGI [5]: > 100 µM
- TGI [6]: > 100 µM
- TGI [7]: > 100 µM
- TGI [8]: > 100 µM
- TGI [9]: > 100 µM
- TGI [11]: > 100 µM
- TGI [12]: > 100 µM
- TGI [14]: > 100 µM
- TGI [15]: > 100 µM
- TGI [16]: > 100 µM
- TGI [17]: > 100 µM
- TGI [18]: > 100 µM
- TGI [19]: > 100 µM
- TGI [20]: > 100 µM
- TGI [21]: > 100 µM
- TGI [22]: > 100 µM
- TGI [23]: > 100 µM
- TGI [24]: > 100 µM
- TGI [25]: > 100 µM
- TGI [57]: > 100 µM
- TGI [26]: > 100 µM
- TGI [27]: > 100 µM
- TGI [28]: > 100 µM
- TGI [29]: > 100 µM
- TGI [30]: > 100 µM
- TGI [31]: > 100 µM
- TGI [32]: > 100 µM
- TGI [33]: > 100 µM
- TGI [34]: > 100 µM
- TGI [35]: > 100 µM
- TGI [36]: > 100 µM
- TGI [37]: > 100 µM
- TGI [38]: > 100 µM
- TGI [39]: > 100 µM
- TGI [40]: > 100 µM
- TGI [41]: > 100 µM
- TGI [42]: > 100 µM
- TGI [43]: > 100 µM
- TGI [45]: > 100 µM
- TGI [46]: > 100 µM
- TGI [48]: > 100 µM
- TGI [49]: > 100 µM
- TGI [50]: > 100 µM
- TGI [51]: > 100 µM
- TGI [52]: > 100 µM
- TGI [53]: > 100 µM
- TGI [54]: > 100 µM
- TGI [55]: > 100 µM
- TGI [58]: > 100 µM
- TGI [56]: > 100 µM
